Assay results taken from ChEMBL document CHEMBL1201862, “PubChem BioAssay data set” (2004).
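Cultured in 96-well plates, cells were exposed to test compound for 48 hours across five concentrations. The concentration for 50% growth inhibition is given as GI50.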 Calls of active or inactive are those of the source. No stated cut-off is given here; in the data, active = GI50 up to about 1.1 µM and inactive = higher.

Experiments:
Experiment in all cases: NCI tumour cell line growth inhibition, 48 h
SF-268 = test system: SF-268
Hs-578T = test system: Hs-578T
MDA-MB-435 = test system: MDA-MB-435
EKVX = test system: EKVX
OVCAR-4 = test system: OVCAR-4
M14 = test system: M14
PC-3 = test system: PC-3
A498 = test system: A498
A549 = test system: A549
SN12C = test system: SN12C
OVCAR-8 = test system: OVCAR-8
HT-29 = test system: HT-29
MOLT-4 = test system: MOLT-4
U-251 = test system: U-251
RXF 393 = test system: RXF 393
SK-MEL-28 = test system: SK-MEL-28
HL-60 = test system: HL-60
HOP-92 = test system: HOP-92
MDA-MB-231 = test system: MDA-MB-231
KM12 = test system: KM12
MDA-N = test system: MDA-N
SK-OV-3 = test system: SK-OV-3
DU-145 = test system: DU-145
OVCAR-5 = test system: OVCAR-5
CCRF-CEM = test system: CCRF-CEM
RPMI-8226 = test system: RPMI-8226
IGROV-1 = test system: IGROV-1
TK-10 = test system: TK-10
SK-MEL-5 = test system: SK-MEL-5
UACC-62 = test system: UACC-62
ACHN = test system: ACHN
SNB-19 = test system: SNB-19
CAKI-1 = test system: CAKI-1
HCT-116 = test system: HCT-116
SK-MEL-2 = test system: SK-MEL-2
LOX IMVI = test system: LOX IMVI
UACC-257 = test system: UACC-257
786-0 = test system: 786-0
SW-620 = test system: SW-620
K562 = test system: K562
HCT-15 = test system: HCT-15
MCF7 = test system: MCF7
HOP-62 = test system: HOP-62
UO-31 = test system: UO-31
SF-295 = test system: SF-295
SF-539 = test system: SF-539
SR = test system: SR
HCC 2998 = test system: HCC 2998
NCI-H522 = test system: NCI-H522
NCI/ADR-RES = test system: NCI/ADR-RES
SNB-75 = test system: SNB-75
NCI-H460 = test system: NCI-H460
NCI-H226 = test system: NCI-H226
NCI-H23 = test system: NCI-H23
OVCAR-3 = test system: OVCAR-3
COLO 205 = test system: COLO 205
Malme-3M = test system: Malme-3M
BT-549 = test system: BT-549

CC1CC/C(=C\c2ccc(F)cc2)C2=C1C(c1ccc(F)cc1)n1c(s/c(=C\c3ccc(Cl)cc3)c1=O)=N2 (configuration not stated)
GI50 (SF-268): > 100 µM (inactive) | GI50 (Hs-578T): > 100 µM (inactive) | GI50 (MDA-MB-435): > 100 µM (inactive) | GI50 (EKVX): > 100 µM (inactive) | GI50 (OVCAR-4): > 100 µM (inactive) | GI50 (M14): > 100 µM (inactive) | GI50 (PC-3): > 100 µM (inactive) | GI50 (A498): > 100 µM (inactive) | GI50 (A549): > 100 µM (inactive) | GI50 (SN12C): > 100 µM (inactive) | GI50 (OVCAR-8): > 100 µM (inactive) | GI50 (HT-29): > 100 µM (inactive) | GI50 (MOLT-4): > 100 µM (inactive) | GI50 (U-251): > 100 µM (inactive) | GI50 (RXF 393): > 100 µM (inactive) | GI50 (SK-MEL-28): > 100 µM (inactive) | GI50 (HL-60): > 100 µM (inactive) | GI50 (HOP-92): > 100 µM (inactive) | GI50 (MDA-MB-231): > 100 µM (inactive) | GI50 (KM12): > 100 µM (inactive) | GI50 (MDA-N): > 100 µM (inactive) | GI50 (SK-OV-3): > 100 µM (inactive) | GI50 (DU-145): > 100 µM (inactive) | GI50 (OVCAR-5): > 100 µM (inactive) | GI50 (CCRF-CEM): > 100 µM (inactive) | GI50 (RPMI-8226): > 100 µM (inactive) | GI50 (IGROV-1): > 100 µM (inactive) | GI50 (TK-10): > 100 µM (inactive) | GI50 (SK-MEL-5): > 100 µM (inactive) | GI50 (UACC-62): > 100 µM (inactive) | GI50 (ACHN): > 100 µM (inactive) | GI50 (SNB-19): > 100 µM (inactive) | GI50 (CAKI-1): > 100 µM (inactive) | GI50 (HCT-116): > 100 µM (inactive) | GI50 (SK-MEL-2): > 100 µM (inactive) | GI50 (LOX IMVI): > 100 µM (inactive) | GI50 (UACC-257): > 100 µM (inactive) | GI50 (786-0): > 100 µM (inactive) | GI50 (SW-620): > 100 µM (inactive) | GI50 (K562): > 100 µM (inactive) | GI50 (HCT-15): > 100 µM | GI50 (MCF7): > 100 µM (inactive) | GI50 (HOP-62): > 100 µM (inactive)

CC(C)c1nccn1Cc1ccc(Cl)cc1Cl
GI50 (SF-268): 76.9 µM (inactive) | GI50 (UO-31): 24.9 µM (inactive) | GI50 (SF-295): 14.5 µM (inactive) | GI50 (SF-539): 61.2 µM (inactive) | GI50 (MDA-MB-435): 49.7 µM (inactive) | GI50 (EKVX): 25.5 µM (inactive) | GI50 (OVCAR-4): 52.5 µM (inactive) | GI50 (SR): 44.4 µM (inactive) | GI50 (M14): 38.1 µM (inactive) | GI50 (HCC 2998): 23.4 µM (inactive) | GI50 (NCI-H522): 21.2 µM (inactive) | GI50 (NCI/ADR-RES): 27 µM (inactive) | GI50 (PC-3): 46.5 µM (inactive) | GI50 (A498): 55.5 µM (inactive) | GI50 (SNB-75): 36.5 µM (inactive) | GI50 (A549): 34.4 µM (inactive) | GI50 (SN12C): 26.5 µM (inactive) | GI50 (OVCAR-8): 46.2 µM (inactive) | GI50 (HT-29): 28.8 µM (inactive) | GI50 (U-251): 41.5 µM (inactive) | GI50 (SK-MEL-28): > 100 µM (inactive) | GI50 (HOP-92): 37.8 µM (inactive) | GI50 (MDA-MB-231): 81.5 µM (inactive) | GI50 (KM12): 30.5 µM (inactive) | GI50 (MDA-N): 38.6 µM (inactive) | GI50 (NCI-H460): 34 µM (inactive) | GI50 (SK-OV-3): 47.9 µM (inactive) | GI50 (DU-145): 14.8 µM (inactive) | GI50 (OVCAR-5): 27.7 µM (inactive) | GI50 (RPMI-8226): 16 µM (inactive) | GI50 (NCI-H226): 22.4 µM (inactive) | GI50 (IGROV-1): > 100 µM (inactive) | GI50 (TK-10): 37.6 µM (inactive) | GI50 (SK-MEL-5): 12 µM (inactive) | GI50 (NCI-H23): 27.4 µM (inactive) | GI50 (UACC-62): 43.8 µM (inactive) | GI50 (ACHN): 83 µM (inactive) | GI50 (OVCAR-3): 27.2 µM (inactive) | GI50 (COLO 205): 29.2 µM (inactive) | GI50 (SNB-19): 48.5 µM (inactive) | GI50 (CAKI-1): 53.7 µM (inactive) | GI50 (HCT-116): 16.3 µM (inactive) | GI50 (SK-MEL-2): 74.3 µM (inactive) | GI50 (LOX IMVI): 43.6 µM (inactive) | GI50 (UACC-257): 17.7 µM (inactive) | GI50 (786-0): 38 µM (inactive) | GI50 (SW-620): 49.1 µM (inactive) | GI50 (Malme-3M): 41.2 µM (inactive) | GI50 (BT-549): 64.1 µM (inactive) | GI50 (K562): 79.1 µM (inactive) | GI50 (HCT-15): 42.4 µM | GI50 (MCF7): 34.1 µM (inactive) | GI50 (HOP-62): 66.7 µM (inactive)

Oc1cccc2cccnc12
GI50 (SR): 0.342 µM (active) | GI50 (HL-60): 0.294 µM (active) | GI50 (RPMI-8226): 0.918 µM (active) | GI50 (IGROV-1): 4.27 µM (inactive) | GI50 (SK-MEL-5): 4.86 µM (inactive) | GI50 (BT-549): 61.1 µM (inactive)
